Values quoted from earlier work in publication PMC9780888, “4-Isobutylmethcathinone—A Novel Synthetic Cathinone with High In Vitro Cytotoxicity and Strong Receptor Binding Preference of Enantiomers” (Pharmaceuticals, 2022).

How the values were obtained:
SH-SY5Y cells = system: SH-SY5Y cells; design: method as in PMID 31473217; conditions: 24 h of exposure ref 20; cited from earlier work
[1] = system: DAR2-like family receptors vs DAR1-like family of receptors; conditions: cited from earlier work
HTR receptor = system: HTR receptor; design: method as in PMID 22897747; conditions: cited from earlier work
SERT = conditions: S- versus R-enantiomer, 13 in b3; cited from earlier work
[2] = system: neuronal differentiated SH-SY5Y cells; design: method as in PMID 25624004; conditions: 24-h exposure, ToxiLight BioAssay ref 30; cited from earlier work
HTR2A = system: HTR2A; design: method as in PMID 22897747; conditions: cited from earlier work

SMILES: CNC(C)C(=O)c1ccc(C)c(C)c1 (stereo not drawn) [3,4-DMMC]
- IC50 (SH-SY5Y cells): > 1 mM

SMILES: NCCc1ccc(O)c(O)c1 [DA, dopamine]
- affinity of DAR2-like family receptors relative to DAR1-like family [1]: 10-100 fold

SMILES: CCNC(C)Cc1ccc2c(c1)OCO2 (stereo not drawn) [MDEA, 3,4-methylenedioxy-N-ethylamphetamine]
- HTR receptor binding activity (HTR receptor): has not been demonstrated

SMILES: CNC(C)Cc1ccc2c(c1)OCO2 (stereo not drawn) [MDMA, 3,4-methylenedioxymethamphetamine]
- HTR receptor binding activity (HTR receptor): has not been demonstrated

SMILES: CN[C@@H](C)C(=O)c1ccc(C)cc1 [S-mephedrone]
- potency as SERT releaser relative to R-mephedrone (SERT): 40 times

SMILES: CCCC(C(=O)c1ccccc1)N1CCCC1 (stereo not drawn) [alpha-PVP]
- reported value for mitochondrial dysfunction [2]: above 100 mM

SMILES: CNC(C)C(=O)c1ccc(F)cc1 (stereo not drawn) [flephedrone]
- HTR2A-binding activity (HTR2A): has been previously described

SMILES: CNC(C)C(=O)c1ccc(C)cc1 (stereo not drawn) [mephedrone]
- HTR2A-binding activity (HTR2A): has been previously described

SMILES: CNC(C)C(=O)c1ccccc1 (stereo not drawn) [methcathinone]
- HTR2A-binding activity (HTR2A): has been previously described
